Experimental data reported in ChEMBL document CHEMBL1157601, “1-Alkyl-4-phenyl-6-alkoxy-1H-quinazolin-2-ones: a novel series of potent calcium-sensing receptor antagonists” (J Med Chem, 2010).
Values after ≈ are worked out from the molar mass of the structure shown. Active and inactive are the calls of the source. The calls are words filed in the database; no cut-off is given here.

How the values were obtained:
[1] = biological target: T1, Extracellular calcium-sensing receptor (Homo sapiens, UniProt P41180); experiment: Antagonist activity at human CaSR expressed in CCL39 cells assessed as inhibition of extracellular calcium-induced intracellular calcium transient by FLIPR assay; format: functional, cell-based
T1 sequence (P41180 whole entry): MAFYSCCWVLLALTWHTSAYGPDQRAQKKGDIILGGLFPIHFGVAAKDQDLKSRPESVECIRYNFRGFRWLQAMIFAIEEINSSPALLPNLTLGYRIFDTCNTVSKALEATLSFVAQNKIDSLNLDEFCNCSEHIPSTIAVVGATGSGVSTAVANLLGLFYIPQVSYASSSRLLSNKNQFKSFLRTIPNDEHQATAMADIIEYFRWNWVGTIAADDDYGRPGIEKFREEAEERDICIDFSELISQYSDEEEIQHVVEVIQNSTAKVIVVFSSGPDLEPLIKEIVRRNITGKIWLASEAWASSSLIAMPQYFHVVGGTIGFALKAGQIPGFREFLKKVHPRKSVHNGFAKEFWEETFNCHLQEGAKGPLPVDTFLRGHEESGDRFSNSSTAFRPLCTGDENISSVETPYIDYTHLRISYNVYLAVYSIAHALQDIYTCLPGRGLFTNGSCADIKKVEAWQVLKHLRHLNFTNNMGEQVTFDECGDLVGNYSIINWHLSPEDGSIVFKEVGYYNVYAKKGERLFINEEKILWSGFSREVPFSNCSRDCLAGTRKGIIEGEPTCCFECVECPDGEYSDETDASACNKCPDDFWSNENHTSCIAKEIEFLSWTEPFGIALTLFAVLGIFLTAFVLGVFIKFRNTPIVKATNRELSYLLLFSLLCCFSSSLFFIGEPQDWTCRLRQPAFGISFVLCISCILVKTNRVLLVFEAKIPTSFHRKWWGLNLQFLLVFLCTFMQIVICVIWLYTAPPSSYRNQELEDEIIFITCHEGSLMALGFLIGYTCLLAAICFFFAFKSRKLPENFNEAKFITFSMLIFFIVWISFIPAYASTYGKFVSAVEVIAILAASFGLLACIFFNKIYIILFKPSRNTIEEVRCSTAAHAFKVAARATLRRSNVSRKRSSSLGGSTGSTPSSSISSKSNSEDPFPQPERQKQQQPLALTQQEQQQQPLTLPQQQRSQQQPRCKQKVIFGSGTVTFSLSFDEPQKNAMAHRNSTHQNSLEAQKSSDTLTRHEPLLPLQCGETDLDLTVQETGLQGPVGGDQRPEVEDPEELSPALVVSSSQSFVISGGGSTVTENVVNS

Rattus norvegicus [2] = experiment: Induction of PTH release in iv dosed Wistar rat by radioimmunoassay; format: functional, organism-based
[3] = Aqueous solubility at pH 6.8; format: physicochemical
[4] = Aqueous solubility at pH 1.0; format: physicochemical
[5] = Oral bioavailability in rat; format: ADME, organism-based; conditions: in vivo
Rattus norvegicus [6] = experiment: Induction of PTH release in Wistar rat assessed as PTH Cmax in blood at 30 mg/kg, po by radioimmunoassay; format: functional
Canis familiaris [7] = experiment: Induction of PTH release in Beagle dog at 3 mg/kg, po by radioimmunoassay; format: functional, Canis lupus familiaris
Rattus norvegicus [8] = experiment: Induction of PTH release in Wistar rat assessed as PTH Cmax in blood at 3 mg/kg, po by radioimmunoassay; format: functional
Canis familiaris [9] = experiment: Induction of PTH release in Beagle dog assessed as PTH Cmax in blood at 0.3 mg/kg, po by radioimmunoassay; format: functional, Canis lupus familiaris

Structure (SMILES) | IC50 [1] [nM] | Activity (Rattus norvegicus [2]) | also measured
C#CCOc1ccc2c(c1)c(-c1ccc(C(C)C)cc1)nc(=O)n2Cc1cccc(OCCO)c1 | 7.3 | Active | 
C#CCOc1ccc2c(c1)c(-c1ccc(C(C)C)cc1)nc(=O)n2Cc1ccc(C)cc1 | 1.6 | Active | 
CCNc1ccc2c(c1)c(-c1ccc(C(C)C)cc1)nc(=O)n2C(C)C | 460 | Active | 
C#CCOc1ccc2c(c1)c(-c1ccc(C(C)C)cc1)nc(=O)n2Cc1ccc(OC)c(OCC)c1 [ATF-936] | 1.4 | Active | 
C#CCOc1ccc2c(c1)c(-c1ccc(C(C)C)cc1)nc(=O)n2Cc1cccc(CC)c1 | 13 | Active | 
CC(C)Oc1ccc2c(c1)c(-c1ccc(C(C)C)cc1)nc(=O)n2C(C)C | 2700 | Active | 
COc1ccc2c(c1)c(-c1ccc(-c3ccccc3)cc1)nc(=O)n2C(C)C | 5500 | Active | 
CCCCOc1ccc2c(c1)c(-c1ccc(C(C)C)cc1)nc(=O)n2C(C)C | 3700 | Active | 
C#CCOc1ccc2c(c1)c(-c1ccc(C(C)C)cc1)nc(=O)n2Cc1cccc(C)c1 | 1.8 | Active | 
C=CCOc1ccc2c(c1)c(-c1ccc(C(C)C)cc1)nc(=O)n2C(C)C | 180 | Active | 
CC#CCOc1ccc2c(c1)c(-c1ccc(C(C)C)cc1)nc(=O)n2C(C)C | 170 | Active | 
COC(=O)c1ccc(-c2nc(=O)n(C(C)C)c3ccc(OC)cc23)cc1 | > 30000 | Active | 
C=CCN(C)c1ccc2c(c1)c(-c1ccc(C(C)C)cc1)nc(=O)n2C(C)C | 230 | Active | 
C#CCOc1ccc2c(c1)c(-c1ccc(C(C)C)cc1)nc(=O)n2Cc1cccc(NC(=O)CN2CCN(C)CC2)c1 | 2.4 | Active | solubility [3]: 20 µg/mL (≈ 35.5 µM); solubility [4]: > 200 µg/mL; bioavailability [5]: 1%
CCc1ccc(-c2nc(=O)n(C(C)C)c3ccc(OC)cc23)cc1 | 2100 | Active | 
C#CCOc1ccc2c(c1)c(-c1ccc(C(C)C)cc1)nc(=S)n2Cc1cccc(OCCO)c1 | 0.4 | Active | 
COc1ccc2c(c1)c(-c1ccc(C(=O)O)cc1)nc(=O)n2C(C)C | > 30000 | Active | 
C#CCOc1ccc2c(c1)c(-c1ccc(C(C)C)cc1)nc(=O)n2Cc1ccc(C(C)C)cc1 | 27 | Active | 
C=CCNc1ccc2c(c1)c(-c1ccc(C(C)C)cc1)nc(=O)n2C(C)C | 70 | Active | 
C#CCOc1ccc2c(c1)c(-c1ccc(C(C)C)cc1)nc(=O)n2Cc1cccc(NC(=O)CN2CCN(CCOC)CC2)c1 | 13 | Active | solubility [3]: 20 µg/mL (≈ 32.9 µM); solubility [4]: > 200 µg/mL; bioavailability [5]: 1%
C#CCOc1ccc2c(c1)c(-c1ccc(C(C)C)cc1)nc(=O)n2Cc1ccc(OCC(=O)O)cc1 | 12.6 | Active | 
CC(C)c1ccc(-c2nc(=O)n(Cc3ccccc3)c3ccc(O)c(CC4CC4)c23)cc1 | 2.5 | Active | 
COc1ccc2c(c1)c(-c1ccccc1)nc(=O)n2C(C)C | > 30000 | Active | 
COc1ccc2c(c1)c(-c1ccc(C(C)(C)C)cc1)nc(=O)n2C(C)C | 2100 | Active | 

Structure (SMILES) | IC50 [1] [nM] | Activity (Rattus norvegicus [2]) | also measured
CCCc1c(O)ccc2c1c(-c1ccc(C(C)C)cc1)nc(=O)n2Cc1ccccc1 | 6.6 | Active | 
CCN(CC)c1ccc2c(c1)c(-c1ccc(C(C)C)cc1)nc(=O)n2C(C)C | 520 | Active | 
C#CCOc1ccc2c(c1)c(-c1ccc(C(C)C)cc1)nc(=O)n2Cc1cccc(OC)c1 | 2.7 | Active | 
C#CCOc1ccc2c(c1)c(-c1ccc(C(C)C)cc1)nc(=O)n2Cc1cccc(NC(=O)CN2CCN(CCCN(C)C)CC2)c1 | 8.1 | Active | solubility [3]: 100 µg/mL (≈ 158 µM); solubility [4]: > 200 µg/mL; bioavailability [5]: 8%
COc1ccc2c(c1)c(-c1ccc(C(C)C)cc1)nc(=O)n2C(C)C | 1400 | Active | 
CCCN(CCC)c1ccc2c(c1)c(-c1ccc(C(C)C)cc1)nc(=O)n2C(C)C | 2900 | Active | 
CCCNc1ccc2c(c1)c(-c1ccc(C(C)C)cc1)nc(=O)n2C(C)C | 1100 | Active | 
C#CCOc1ccc2c(c1)c(-c1ccc(C(C)C)cc1)nc(=O)n2Cc1ccccc1 | 4.4 | Active | 
C=CCc1c(O)ccc2c1c(-c1ccc(C(C)C)cc1)nc(=O)n2Cc1ccccc1 | 3.9 | Active | 
C#CCOc1ccc2c(c1)c(-c1ccc(C(C)C)cc1)nc(=O)n2Cc1cccc(OCC(=O)O)c1 | 3.4 | Active | 
C#CCN(CC#C)c1ccc2c(c1)c(-c1ccc(C(C)C)cc1)nc(=O)n2C(C)C | 120 | Active | 
C#CCOc1ccc2c(c1)c(-c1ccc(C(C)C)cc1)nc(=O)n2Cc1ccc(CC)cc1 | 4.2 | Active | 
CC(C)c1ccc(-c2nc(=O)n(C(C)C)c3ccc(NCc4ccccc4)cc23)cc1 | 10000 | Active | 
CCCOc1ccc2c(c1)c(-c1ccc(C(C)C)cc1)nc(=O)n2C(C)C | 1100 | Active | 
CCOc1ccc2c(c1)c(-c1ccc(C(C)C)cc1)nc(=O)n2C(C)C | 2200 | Active | 
CC(C)c1ccc(-c2nc(=O)n(C(C)C)c3ccc(O)cc23)cc1 | 15900 | Active | 
C#CCOc1ccc2c(c1)c(-c1ccc(C(C)C)cc1)nc(=O)n2Cc1ccc(OC)cc1 | 4.2 | Active | 
C#CCOc1ccc2c(c1)c(-c1ccc(C(C)C)cc1)nc(=O)n2C(C)C | 9 | Active | solubility [3]: 20 µg/mL (≈ 55.5 µM); solubility [4]: 20 µg/mL (≈ 55.5 µM); bioavailability [5]: 20%; Activity (Rattus norvegicus [6]): 150 pgequiv/ml; Activity (Canis familiaris [7]): 50 pg·h/mL; Activity (Rattus norvegicus [8]): 280 pgequiv/ml; Activity (Canis familiaris [9]): 300 pgequiv/ml
C#CCNc1ccc2c(c1)c(-c1ccc(C(C)C)cc1)nc(=O)n2C(C)C | 30 | Active | 
COc1ccc2c(c1)c(-c1ccc(C)cc1)nc(=O)n2C(C)C | > 30000 | Active | 
COc1ccc2c(c1)c(-c1ccc(OC(C)C)cc1)nc(=O)n2C(C)C | > 30000 | Active | 
COc1ccc2c(c1)c(-c1ccc(C3CC3)cc1)nc(=O)n2C(C)C | 3300 | Active | 
C#CCOc1ccc2c(c1)c(-c1ccc(C(C)C)cc1)nc(=O)n2Cc1ccc(OCC)cc1 | 19 | Active | 
